Test results: EP3623369A1, “NOVEL MORPHOLINYL AMINE COMPOUNDS FOR THE TREATMENT OF AUTOIMMUNE DISEASE” (F. Hoffmann-La Roche AG, priority 2018, dated 2020)

How the values were obtained:
hTLR7 = biological target: T1, hTLR7 (Homo sapiens, UniProt Q9NYK1); design: host or cells: HEK; conditions: data disclosed in US20150105370; read-out: HEK/hTLR7 IC50; cited from earlier work
T1 sequence (Q9NYK1 27-1049): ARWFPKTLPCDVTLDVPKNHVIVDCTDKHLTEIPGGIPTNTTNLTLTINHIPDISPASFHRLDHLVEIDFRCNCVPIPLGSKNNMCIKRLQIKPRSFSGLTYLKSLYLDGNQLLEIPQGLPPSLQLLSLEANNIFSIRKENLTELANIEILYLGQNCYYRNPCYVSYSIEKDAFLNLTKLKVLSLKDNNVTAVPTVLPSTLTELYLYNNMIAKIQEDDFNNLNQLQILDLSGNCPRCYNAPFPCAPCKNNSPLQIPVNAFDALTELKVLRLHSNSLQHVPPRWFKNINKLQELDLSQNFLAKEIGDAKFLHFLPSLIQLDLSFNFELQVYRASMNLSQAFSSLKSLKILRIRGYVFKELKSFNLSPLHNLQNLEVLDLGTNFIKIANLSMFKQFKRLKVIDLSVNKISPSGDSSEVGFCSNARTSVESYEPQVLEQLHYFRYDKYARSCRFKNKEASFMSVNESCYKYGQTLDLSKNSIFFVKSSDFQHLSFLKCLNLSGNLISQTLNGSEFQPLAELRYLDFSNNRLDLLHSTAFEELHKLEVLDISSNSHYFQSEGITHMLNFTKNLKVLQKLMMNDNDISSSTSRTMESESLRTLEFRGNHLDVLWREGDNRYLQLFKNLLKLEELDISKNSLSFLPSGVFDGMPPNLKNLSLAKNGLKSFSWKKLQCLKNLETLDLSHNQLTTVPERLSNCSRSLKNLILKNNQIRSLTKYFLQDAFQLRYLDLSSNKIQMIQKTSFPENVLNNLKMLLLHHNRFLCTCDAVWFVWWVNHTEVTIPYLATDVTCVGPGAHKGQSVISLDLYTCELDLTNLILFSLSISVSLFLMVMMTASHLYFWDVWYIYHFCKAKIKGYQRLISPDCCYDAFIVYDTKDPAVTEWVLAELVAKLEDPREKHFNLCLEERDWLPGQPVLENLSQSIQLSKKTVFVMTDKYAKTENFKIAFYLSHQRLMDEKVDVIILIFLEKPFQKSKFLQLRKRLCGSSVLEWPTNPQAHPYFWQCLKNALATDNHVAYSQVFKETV

hTLR9 = biological target: T2, hTLR9 (Homo sapiens, UniProt Q9NR96); design: host or cells: HEK; conditions: data disclosed in US20150105370; read-out: HEK/hTLR9 IC50; cited from earlier work
T2 sequence (Q9NR96 26-1032): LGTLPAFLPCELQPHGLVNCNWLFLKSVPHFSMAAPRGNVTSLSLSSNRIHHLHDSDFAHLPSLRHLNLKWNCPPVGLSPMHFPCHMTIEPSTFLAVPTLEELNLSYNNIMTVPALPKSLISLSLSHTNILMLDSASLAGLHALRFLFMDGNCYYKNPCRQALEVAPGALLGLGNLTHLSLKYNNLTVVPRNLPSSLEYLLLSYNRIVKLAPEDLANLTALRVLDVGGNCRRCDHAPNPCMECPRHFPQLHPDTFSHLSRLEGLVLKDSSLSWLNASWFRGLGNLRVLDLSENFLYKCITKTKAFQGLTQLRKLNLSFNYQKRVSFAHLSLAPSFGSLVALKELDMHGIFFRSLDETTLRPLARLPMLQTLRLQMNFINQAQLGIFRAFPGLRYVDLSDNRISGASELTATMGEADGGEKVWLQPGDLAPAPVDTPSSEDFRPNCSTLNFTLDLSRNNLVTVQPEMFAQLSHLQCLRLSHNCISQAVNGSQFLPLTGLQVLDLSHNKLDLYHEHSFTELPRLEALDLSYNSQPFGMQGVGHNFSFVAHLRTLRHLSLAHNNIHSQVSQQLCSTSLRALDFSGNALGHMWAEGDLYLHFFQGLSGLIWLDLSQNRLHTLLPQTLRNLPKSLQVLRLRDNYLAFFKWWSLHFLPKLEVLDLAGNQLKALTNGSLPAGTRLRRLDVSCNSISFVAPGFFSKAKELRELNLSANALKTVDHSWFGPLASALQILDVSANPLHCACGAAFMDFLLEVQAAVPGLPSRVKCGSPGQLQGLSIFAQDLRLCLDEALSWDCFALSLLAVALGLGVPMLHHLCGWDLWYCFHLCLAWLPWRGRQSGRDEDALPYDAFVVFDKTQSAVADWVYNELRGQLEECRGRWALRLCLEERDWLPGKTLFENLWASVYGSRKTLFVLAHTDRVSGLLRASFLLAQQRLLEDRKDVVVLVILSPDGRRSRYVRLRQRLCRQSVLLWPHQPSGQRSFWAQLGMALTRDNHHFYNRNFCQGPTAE

[1] = Human microsome stability assay; type: in vitro ADME; conditions: human liver microsomes, 1 µM test compound, 0.5 mg/mL protein, 37°C, up to 30 minutes
Experimental: Human microsome stability assay
The human microsomal stability assay is used for early assessment of metabolic stability of a test compound in human liver microsomes.
Human liver microsomes (Cat.NO.: 452117, Corning, USA;Cat.NO.:H2610, Xenotech, USA) were preincubated with test compound for 10 minutes at 37°C in 100 mM potassium phosphate buffer, pH 7.4. The reactions were initiated by adding NADPH regenerating system. The final incubation mixtures contained 1 µM test compound, 0.5 mg/mL liver microsomal protein, 1 mM MgCl2, 1 mM NADP, 1 unit/mL isocitric dehydrogenase and 6 mM isocitric acid in 100 mM potassium phosphate buffer, pH 7.4. After incubation times of 0, 3, 6, 9, 15 and 30 minutes at 37°C, 300 µL of cold acetonitrile (including internal standard) was added to 100 µL incubation mixture to terminate the reaction. Following precipitation and centrifugation, the amount of compound remaining in the samples were determined by LC-MS/MS. Controls of no NADPH regenerating system at zero and 30 minutes were also prepared and analyzed. […] Table 3. Human liver microsome stability of the compounds of present invention

Row | Compound | IC50 (hTLR7) [nM] | IC50 (hTLR9) [µM] | Clearance of Human microsome [1] [mL/min/kg]
1 | C[C@@H]1CN(c2ccc(C#N)c3ncccc23)C[C@H](CNc2ccccc2)O1 [ER-886601] | 15 | > 2 | –
2 | C[C@@H]1CN(c2ccc(C#N)c3nccnc23)C[C@H](CN2Cc3ccc(N4CC5CCC(C4)N5)cc3C2)O1 [Example 44, 8-[(2S,6R)-2-[[5-(3,8-diazabicyclo[3.2.1]octan-3-yl)isoindolin-2-yl]methyl]-6-methyl-morpholin-4-yl]quinoxaline-5-carbonitrile] | – | – | 6.94
3 | Cc1cccc(NC[C@H]2CN(c3ccc(C#N)c4ncccc34)C[C@@H](C)O2)c1 [ER-886602] | 185 | > 20 | –
4 | Cc1cccc(NC[C@H]2CN(c3ccc(C#N)c4ncccc34)C[C@@H](C)O2)n1 [ER-886799] | 7 | > 2 | –
5 | C[C@@H]1CN(c2ccc(C#N)c3ncccc23)C[C@H](CN2Cc3ccc(N4CCNCC4C(=O)O)cc3C2)O1 (stereo partly drawn) [Example 56, 1-[2-[[(2S,6R)-4-(8-cyano-5-quinolyl)-6-methyl-morpholin-2-yl]methyl]isoindolin-5-yl]piperazine-2-carboxylic acid] | – | – | 6.51
6 | Cc1nc2cc(NC[C@H]3CN(c4ccc(C#N)c5ncccc45)C[C@@H](C)O3)ccc2n1C [ER-886608] | 13 | 3.37 | –
